Data reported in patent publication EP1263420B1 (priority 2000, dated 2001).
Values joined by “and” are separate entries in the source; they are usually repeats but may differ in a detail not shown here. Identical values can stand only once.

What was measured:
Assay type in all cases: in vivo
TGase II = TGase II assay of rat lung tissue after inhaled 13-cis RA (experiment B); conditions: for TGase II assay / TGase II assay DPM/µg protein: rat lung
Experimental: Male rats (n=23) (Sprague-Dawley from Charles River) were divided into six experimental groups and were given varying amounts of 13-cis RA through an inhalant apparatus once daily for different times each day for 14 days. The experimental groups were as follows (Table 1) :1.Vehicle control : rats (3) inhaled vehicle for 240 minutes; 2. Low dose 13-cis RA: rats (4) inhaled a solution containing 13-cis RA at a concentration of 62.2µg/liter (inhaled dose 115.0µg/kg body weight) in 5 minutes; 3. Low-Middle dose 13-cis RA : rats (4) inhaled a solution containing 13-cis RA at a concentration of 62.2µg/liter (inhaled dose 334.4µg/kg body weight) in 15 minutes; 4.Middle dose 13-cis RA: rats (4) inhaled a solution containing 13-cis RA at a concentration of 62.2µg/liter (inhaled dose 1012.3µg/kg body weight) in 45 minutes; 5. Middle-High dose 13-cis RA : rats (4) inhaled a solution containing 13-cis RA at a concentration of 62.2µg/liter (inhaled dose 2843.4µg/kg body weight) in 120 minutes; 6. High dose 13-cis RA : rats (4) inhaled a solution containing 13-cis RA at a concentration of 62.2µg/liter (inhaled dose 5935.6µg/kg body weight) in 240 minutes. […]
Enzyme assay mixtures were prepared by adding 80µl of SUBSTRATE mixture (322.8µl H2O, 120µl 0.5M NaBorate, 60µl 0.01M EDTA, 60µl 0.1M CaCl2, 6µl 1M DTT, 240µl dimethyl casein, 30µl Triton X-100, 1.2µl [^3H]-Putrescine, 120µl Putrescine) to 20µl sample, 20µl scraping buffer for blank control , 20 µl (18µl scraping buffer + 2µl TGase II) for positive control. Samples were mixed in 15ml tubes, the tubes were shaken before putting them into a 28°C water bath for 30 minutes. Reactions were slowed down in an ice bath. 80µl of the incubation mixture was adsorbed onto paper disks. These were immediately dropped into cold 10% TCA (0.1% Putrescine) and washed with agitation for 7 minutes, followed by 2 additional washes with 5% TCA (0.05% putrescine) for 5~7 minutes, and once more with cold (-20°C) 95% ethanol for 5 minutes. Paper disks were dried and placed into 5ml Aquasol, and counted in a Liquid Scintillation Counter. Protein concentration determination was conducted by the Bradford method.

RARα = assay: RAR induction in lung of A/J mice exposed to isotretinoin aerosols (Western blot); conditions: inhaled mid dose isotretinoin, urethane-treated A/J mice, relative to vehicle-exposed
Experimental: (§1) Antibodies: Polyclonal antibodies to RARα, β and γ (Santa Cruz Biotechnology Inc., San Francisco, CA) were used with a BM Chemiluminescence Western Blotting Kit (Mouse/Rabbit) (Boehringer Mannheim Corporation, Indianapolis).
(§2) Experimental Design: Five lungs each from the urethane-treated vehicle, low dose, and mid dose animals were snap frozen in liquid nitrogen and stored at -70°C for determination of RARs α, β and γ by Western Blot Analysis. In addition, five lungs each from urethane-injected unexposed mice, and untreated control mice were designated for Westerns. The lungs were homogenized and the RARs were determined by standard Western Blotting (21, 22). Due to deaths early in the high dose experiment, no lungs were available for Western Blot Analysis for the high dose exposures, i.e. all tissue was used for lesion quantitation purposes.
(§3) Samples: Lung tissue was collected, frozen on dry ice and kept at -70°C until used. A 500 mg portion was diced in small pieces and homogenized in 300 µl of cold PBS using a hand held homogenizer for 2-3 min. Samples were centrifuged at 500 rpm for 5 min or until the supernatant was clear. The pellet was suspended in 400 µl of cold Buffer A [2 µl 0.5 M EDTA, 10 µl 1 mM EGTA, 50 µl 100 mM PMSF, 10 µl 1M DTT, 10 ml (10 mM HEPES pH 7.9 + 10 mM KCl)], and left at ice temperature for 15 min. A 25 µl volume of 10% solution of NP-40 was added and the samples were mixed in a vortex vigorously for 10 sec. Samples were centrifuged at 14,000 rpm for 1 min at 4°C and the pellet was treated once more in this fashion. The supernatant was removed and 25 - 100 µl of Buffer C [4 µl 0.5 M EDTA, 20 µl 100 mM EGTA, 20 µl 0.1 M PMSF, 2 µl 1 M DTT, 2 ml (20 mM HEPES pH 7.9 + 0.4M NaCl)] was added. Pellets were resuspended by tapping gently on the bottom of the Eppendorf tube. Samples were rocked vigorously in a bucket of ice on an orbitor shaker for 30 min. Samples were centrifuged at 14,000 rpm for 5 min at 4°C. Supematants were kept frozen at -70°C until needed. Protein concentration determination was conducted by the Bradford method (23). […]

RARγ = assay: as above; conditions: inhaled mid dose isotretinoin, urethane-treated A/J mice, relative to vehicle-exposed
Experimental: as §1, §2, §3

RARβ = assay: as above; conditions: inhaled mid dose isotretinoin, urethane-treated A/J mice, relative to vehicle-exposed
Experimental: as §1, §2, §3

[1] = High: 240 minutes daily 14 Days, 1872µg/kg total deposited dose
[2] = Low-Middle: 15 minutes daily 14 Days, 117µg/kg total deposited dose
[3] = Middle-High: 120 minutes daily 14 Days, 936µg/kg total deposited dose
[4] = Middle: 45 minutes daily 14 Days, 351µg/kg total deposited dose

CC1=C(/C=C/C(C)=C/C=C/C(C)=C\C(=O)O)C(C)(C)CCC1 [13-cis RA, 13-cis-Retinoic Acid]
stimulation of lung TGase II activity (TGase II; maximum, inhaled dose of 1012.3µg/kg, 45 minutes of inhalation, 14 days): 2.9 Fold | TGase II assay (TGase II; [1]): 0.1025 +/- 0.004 picomoles/µg protein/30 min and 0.1025 ± 0.004 picomoles/µg protein/30 min | TGase II assay DPM/µg protein (TGase II; [1]): 8053 DPM/µg protein | TGase II assay (TGase II; [2]): 0.1150 +/- 0.006 picomoles/µg protein/30 min and 0.1150 ± 0.006 picomoles/µg protein/30 min | TGase II assay DPM/µg protein (TGase II; [2]): 9035 DPM/µg protein | TGase II assay DPM/µg protein (TGase II; Low: 5 minutes daily 14 Days, 39µg/kg total deposited dose): 7503 DPM/µg protein | TGase II assay (TGase II; Low: 5 minutes daily 14 Days, 39µg/kg total deposited dose, vehicle 0.0450): 0.0955 +/- 0.004 picomoles/µg protein/30 min and 0.0955 ± 0.004 picomoles/µg protein/30 min | TGase II assay (TGase II; [3]): 0.1020 +/- 0.005 picomoles/µg protein/30 min and 0.1020 ± 0.005 picomoles/µg protein/30 min | TGase II assay DPM/µg protein (TGase II; [3]): 8014 DPM/µg protein | TGase II assay (TGase II; [4]): 0.1330 +/- 0.009 picomoles/µg protein/30 min | TGase II assay DPM/µg protein (TGase II; [4]): 10449 DPM/µg protein | stimulation of lung TGase II activity (TGase II; with larger amounts of inhaled retinoid): 1.2 fold | upregulated lung tissue RAR α over solvent (RARα): 3.9 fold | upregulated lung tissue RAR γ over solvent (RARγ): 3.7 fold | upregulated lung tissue RAR β over solvent (RARβ): 3.3 fold
